System: HERV-K102 replication (cDNA production) in cultured cord blood cells
Experiment: Screening for agents able to modulate HERV-K102 replication (cDNA production) in cultured cord blood cells, real time PCR ddCt ratio
Assay type: cell-based, human
Conditions: for effect on HERV-K102 replication in cultured CB cells: approximately 10^-6 M or equivalent, harvested day 5
From the text: First we wished to show in normal lymphocytes that there are increased levels of HERV-K102 pol DNA over and above genomic when HERV-K102 associated particles are made. For this we extracted DNA and then performed the HERV-K102 ddCt ratio. Please see FIG. 15 for the sequences and location of the forward and reverse primers and the probe used for the real time PCR. […] We developed a ddCt ratio real time PCR method (relative quantitation) which takes the difference between HERV-K102 pol and 18 s RNA Ct's (delta Ct), and subtracts this from the same performed on commercial normal adult genomic DNA (male) (the delta delta Ct). Then we use the algorithm 2−(ddCt) to calculate the relative ratio of HERV-K102 to genomic DNA. This index when elevated above normal ratios (see Table 3 for these ratios) for fluids with contaminating cells (eg plasma and saliva) indicates an excess of non-genomic DNA templates and could be taken as a surrogate marker for putative particles in the sample. […] Since real time PCR is so sensitive, and we were only interested in the DNA copy number of HERV-K102 pol, we subsequently used the Qiagen DNA Mini kit for DNA extractions of plasma.
Commercially available master mix buffer can be purchased with or without Amperase-UNG a highly purified enzyme Uracil-N-Glycosylase, which when included in the buffer for the real time PCR will digest any DNA or cDNA templates containing uracil. […] Thus, if any isolated DNA becomes digested it must be non-genomic.
Finally we investigated certain natural products, drugs and peptide cytokines for their ability to regulate HERV-K replication such as measured in CB cells (Table 7). These agents were tested at approximately 10^−6 M or equivalent. We harvested the study on day 5. […] Tuftsin is naturally cleaved from the FC region of IgG and is considered an immunoenhancing substance and the 1/5000 concentration is usually employed to show its enhancing effects on the activation of monocytes.
Cord blood (CB) isolation. Under aseptic conditions, cord blood was collected into heparinized tubes and peripheral blood mononuclear cells (PBMC) were prepared as follows: the blood was centrifuged at 2700 rpm for 10 minutes, and the buffy coat placed in 5 mls of media (defined as IMDM plus 0.2% penicillin/gentamycin). The mixture was layered onto Ficoll-Paque (Pharmacia #17-0840-03) in a ratio of 1/3 Ficoll to blood suspension. The tubes were centrifuged 30 minutes at 1600 rpm.

[1] = cord blood harvested Day 5, agents at approximately 10^-6 M or equivalent, Day 5 control 2.19
[2] = cord blood harvested Day 5, agents at approximately 10^-6 M or equivalent, relative to Day 5 control ddCt ratio
[3] = cord blood Day 5, uracil-N-glycosylase in master mix, agents at approximately 10^-6 M or equivalent
[4] = Tuftsin 1/5000, cord blood Day 5

| Molecule | effect on HERV-K102 replication in cultured CB cells | HERV-K102 ddCt Ratio [1] | Level of Control Activity (%) [2] [%] | ddCt performed with UNG [3] | further results |
| --- | --- | --- | --- | --- | --- |
| C[C@]12CC[C@H](O)CC1=CC[C@@H]1[C@@H]2CC[C@]2(C)C(=O)CC[C@@H]12 [DHEA, dihydroepiandrosterone] | enhanced HERV-K102 replication | 2.60 | 119 |  |  |
| CC/C(=C(\c1ccccc1)c1ccc(OCCN(C)C)cc1)c1ccccc1 [Tamoxifen, tamoxifen] | enhanced HERV-K102 replication | 3.43 | 157 | 2.64 (63%) |  |
| C[C@]12CC[C@@H]3c4ccc(O)cc4CC[C@H]3[C@@H]1CC[C@@H]2O [E2, estradiol] |  |  | 133 |  |  |
| Tuftsin |  |  |  |  | Level of Control Activity (%) (Tuftsin 1/500, cord blood Day 5): 65.7%; HERV-K102 ddCt Ratio (Tuftsin 1/500, cord blood Day 5, control 2.19): 1.44; Level of Control Activity (%) [4]: 189%; ddCt performed with UNG [4]: 2.10; HERV-K102 ddCt Ratio (Tuftsin 1/5000, cord blood Day 5, control 2.19): 4.14; effect on HERV-K102 replication (Tuftsin at high levels (1/500)): inhibited HERV-K102 replication; effect on HERV-K102 replication (Tuftsin at low levels (1/5000)): enhanced HERV-K102 replication; effect on HERV-BZU activation (depending on concentration, refers to Table 7): can enhance or inhibit HERV-BZU activation |
| CC1=C(c2ccc(O)cc2)[C@H](c2ccc(OCCN3CCCCC3)cc2)Oc2cc(O)ccc21 [EM652] | enhanced HERV-K102 replication | 3.07 | 140 | 2.06 (100%) |  |

From US7964341B2, “Human endogenous retrovirus K102 with foamy-virus-like properties and uses thereof” (priority 2005, dated 2011)
